In article PMC4922798 (Journal of the American Chemical Society, 2015):

Target: CazM (Chaetomium globosum, UniProt A0A0K0MCJ4)
Assay: HPLC / LC-MS product analysis
Assay type: biochemical
Conditions: 2 mM 11-SNAC, malonyl-CoA, SAM; pH 7.4, room temperature, 8 h; reductive release

CazM, sequence (A0A0K0MCJ4 whole entry): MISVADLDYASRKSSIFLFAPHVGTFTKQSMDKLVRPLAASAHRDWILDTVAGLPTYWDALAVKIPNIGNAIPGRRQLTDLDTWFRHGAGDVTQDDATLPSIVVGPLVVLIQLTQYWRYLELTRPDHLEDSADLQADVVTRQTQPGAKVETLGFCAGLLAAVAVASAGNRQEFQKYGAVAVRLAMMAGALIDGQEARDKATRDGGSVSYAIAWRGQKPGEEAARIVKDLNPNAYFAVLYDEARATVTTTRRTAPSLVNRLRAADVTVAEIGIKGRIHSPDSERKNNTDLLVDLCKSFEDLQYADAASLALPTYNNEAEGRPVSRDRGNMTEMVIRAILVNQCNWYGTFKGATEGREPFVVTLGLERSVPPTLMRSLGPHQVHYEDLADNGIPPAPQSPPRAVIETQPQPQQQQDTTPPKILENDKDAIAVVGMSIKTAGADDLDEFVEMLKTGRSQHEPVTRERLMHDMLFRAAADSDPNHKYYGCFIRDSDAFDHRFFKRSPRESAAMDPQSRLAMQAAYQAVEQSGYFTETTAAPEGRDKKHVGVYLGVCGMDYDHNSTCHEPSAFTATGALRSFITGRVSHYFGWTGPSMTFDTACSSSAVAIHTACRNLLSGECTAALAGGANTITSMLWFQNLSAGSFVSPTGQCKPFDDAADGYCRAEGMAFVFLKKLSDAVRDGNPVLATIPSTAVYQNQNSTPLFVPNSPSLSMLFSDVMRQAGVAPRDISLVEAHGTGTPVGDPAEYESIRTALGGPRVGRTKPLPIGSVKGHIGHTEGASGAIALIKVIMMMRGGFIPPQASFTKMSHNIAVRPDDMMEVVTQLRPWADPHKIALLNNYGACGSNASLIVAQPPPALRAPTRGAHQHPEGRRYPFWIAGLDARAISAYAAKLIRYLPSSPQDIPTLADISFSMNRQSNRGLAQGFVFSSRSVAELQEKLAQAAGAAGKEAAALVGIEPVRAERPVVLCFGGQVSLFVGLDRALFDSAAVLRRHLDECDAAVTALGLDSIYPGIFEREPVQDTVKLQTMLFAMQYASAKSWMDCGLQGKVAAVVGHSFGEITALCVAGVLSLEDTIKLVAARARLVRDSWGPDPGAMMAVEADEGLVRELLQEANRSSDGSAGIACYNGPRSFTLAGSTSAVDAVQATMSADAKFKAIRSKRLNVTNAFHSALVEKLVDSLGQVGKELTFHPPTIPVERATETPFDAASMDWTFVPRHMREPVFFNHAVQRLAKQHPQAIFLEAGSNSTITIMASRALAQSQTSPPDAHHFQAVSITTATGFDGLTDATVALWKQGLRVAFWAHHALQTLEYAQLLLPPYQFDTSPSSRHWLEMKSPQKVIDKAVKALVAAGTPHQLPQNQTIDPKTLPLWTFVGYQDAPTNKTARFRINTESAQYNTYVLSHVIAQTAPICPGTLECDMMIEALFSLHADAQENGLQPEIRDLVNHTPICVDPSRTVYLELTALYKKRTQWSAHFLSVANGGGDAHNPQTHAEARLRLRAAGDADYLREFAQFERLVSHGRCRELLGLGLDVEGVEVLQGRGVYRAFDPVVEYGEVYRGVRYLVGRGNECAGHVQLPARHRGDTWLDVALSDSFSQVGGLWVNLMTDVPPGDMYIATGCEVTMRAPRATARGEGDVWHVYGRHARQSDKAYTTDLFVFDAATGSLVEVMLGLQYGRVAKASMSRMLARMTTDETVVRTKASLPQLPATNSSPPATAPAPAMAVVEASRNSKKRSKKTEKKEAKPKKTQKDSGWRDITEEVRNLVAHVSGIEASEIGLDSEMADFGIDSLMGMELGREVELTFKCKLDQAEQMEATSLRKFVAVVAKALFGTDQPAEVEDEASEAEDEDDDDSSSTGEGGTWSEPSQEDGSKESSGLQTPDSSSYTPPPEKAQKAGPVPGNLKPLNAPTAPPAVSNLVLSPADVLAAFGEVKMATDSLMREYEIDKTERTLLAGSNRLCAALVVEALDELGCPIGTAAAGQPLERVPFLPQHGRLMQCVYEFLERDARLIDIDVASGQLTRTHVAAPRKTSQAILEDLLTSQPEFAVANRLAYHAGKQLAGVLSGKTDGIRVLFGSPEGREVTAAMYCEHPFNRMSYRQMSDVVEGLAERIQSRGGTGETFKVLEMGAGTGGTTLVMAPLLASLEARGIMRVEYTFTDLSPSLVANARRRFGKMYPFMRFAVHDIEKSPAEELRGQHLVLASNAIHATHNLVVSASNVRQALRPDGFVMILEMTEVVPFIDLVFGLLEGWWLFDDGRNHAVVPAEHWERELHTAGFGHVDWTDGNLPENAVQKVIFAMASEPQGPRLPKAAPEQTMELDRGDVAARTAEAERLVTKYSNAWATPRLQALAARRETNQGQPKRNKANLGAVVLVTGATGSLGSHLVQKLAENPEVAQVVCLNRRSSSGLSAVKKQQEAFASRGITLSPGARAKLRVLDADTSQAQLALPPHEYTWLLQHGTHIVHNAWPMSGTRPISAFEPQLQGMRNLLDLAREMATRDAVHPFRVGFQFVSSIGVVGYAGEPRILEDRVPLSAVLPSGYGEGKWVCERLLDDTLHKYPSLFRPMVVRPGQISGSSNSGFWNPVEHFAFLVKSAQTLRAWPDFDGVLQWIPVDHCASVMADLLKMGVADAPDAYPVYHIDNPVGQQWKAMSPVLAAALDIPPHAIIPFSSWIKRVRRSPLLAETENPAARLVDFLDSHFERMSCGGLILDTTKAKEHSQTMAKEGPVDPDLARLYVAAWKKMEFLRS

## NC(=O)C1=CN([C@@H]2O[C@H](COP(=O)(O)OP(=O)(O)OC[C@H]3O[C@@H](n4cnc5c(N)ncnc54)[C@H](OP(=O)(O)O)[C@@H]3O)[C@@H](O)[C@H]2O)C=CC1 [NADPH]
  HPLC / LC-MS product analysis: CazM requires NADPH for the reductive offloading of its polyketide product
